Reference: patent US6620810B2, “4-thioxo-4,7-dihydro-thieno[2,3-b]pyridine-5-carboxamides as antiviral agents” (Pharmacia & Upjohn Company, priority 2001, dated 2003)

Legend:
Type in all cases: biochemical
[1] = biological target: HSV polymerase (Human herpesvirus 1, UniProt P04293); assay: HSV polymerase assay (Table 1)
[2] = biological target: VZV polymerase (Varicella-zoster virus, UniProt P09252); assay: VZV polymerase assay (Table 1)
[3] = biological target: T1, HCMV polymerase (Human cytomegalovirus, UniProt P08546); assay: HCMV polymerase scintillation proximity assay (Test A, modified version); conditions: modified SPA assay: compounds diluted in 100% DMSO, 4.5 mM DTT in polymerase buffer
T1 construct: made in house; host or cells: recombinant baculovirus-infected SF-9 cells
T1 sequence (P08546 whole entry): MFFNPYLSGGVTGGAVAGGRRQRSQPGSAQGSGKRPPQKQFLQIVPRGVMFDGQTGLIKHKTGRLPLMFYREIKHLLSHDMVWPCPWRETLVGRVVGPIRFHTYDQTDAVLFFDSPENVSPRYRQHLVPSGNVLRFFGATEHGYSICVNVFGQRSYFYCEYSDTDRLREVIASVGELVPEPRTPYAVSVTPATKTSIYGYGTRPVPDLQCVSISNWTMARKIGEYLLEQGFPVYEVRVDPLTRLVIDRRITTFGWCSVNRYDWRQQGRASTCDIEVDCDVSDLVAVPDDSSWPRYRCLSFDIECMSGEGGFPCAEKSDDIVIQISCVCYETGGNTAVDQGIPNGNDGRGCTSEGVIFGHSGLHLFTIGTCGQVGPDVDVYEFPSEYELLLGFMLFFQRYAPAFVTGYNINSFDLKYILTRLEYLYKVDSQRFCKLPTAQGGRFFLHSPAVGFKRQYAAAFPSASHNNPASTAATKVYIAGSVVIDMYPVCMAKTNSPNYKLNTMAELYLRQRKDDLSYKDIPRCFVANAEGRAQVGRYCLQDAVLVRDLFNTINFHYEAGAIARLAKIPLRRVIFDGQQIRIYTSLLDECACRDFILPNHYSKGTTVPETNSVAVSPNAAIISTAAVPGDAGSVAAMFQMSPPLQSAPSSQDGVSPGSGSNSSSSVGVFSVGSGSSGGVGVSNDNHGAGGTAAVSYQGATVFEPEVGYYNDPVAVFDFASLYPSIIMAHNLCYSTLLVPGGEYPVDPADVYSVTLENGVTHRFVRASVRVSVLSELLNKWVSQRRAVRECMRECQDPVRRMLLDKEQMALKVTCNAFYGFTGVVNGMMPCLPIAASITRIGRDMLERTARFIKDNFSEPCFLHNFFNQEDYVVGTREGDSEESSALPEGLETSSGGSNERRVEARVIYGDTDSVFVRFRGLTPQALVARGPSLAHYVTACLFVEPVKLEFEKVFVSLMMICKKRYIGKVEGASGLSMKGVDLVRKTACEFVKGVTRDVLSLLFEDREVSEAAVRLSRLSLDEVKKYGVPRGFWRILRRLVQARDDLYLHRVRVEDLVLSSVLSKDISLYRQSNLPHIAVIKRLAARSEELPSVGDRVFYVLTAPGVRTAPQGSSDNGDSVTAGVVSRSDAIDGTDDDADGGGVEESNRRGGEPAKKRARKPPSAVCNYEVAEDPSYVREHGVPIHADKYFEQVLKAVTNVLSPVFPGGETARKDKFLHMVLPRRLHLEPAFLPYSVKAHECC
Protocol: The HCMV polymerase assay is performed using a scintillation proximity assay (SPA) as described in several references, such as N. D. Cook, et al., Pharmaceutical Manufacturing International, pages 49-53 (1992); K. Takeuchi, Laboratory Practice, September issue (1992); U.S. Pat. No. 4,568,649 (1986); which are incorporated by reference herein. Reactions are performed in 96-well plates. The assay is conducted in 100 μl volume with 5.4 mM HEPES (pH 7.5), 11.7 mM KCl, 4.5 mM MgCl2, 0.36 mg/ml BSA, and 90 nM ^3H-dTTP. Assays are run with and without CHAPS, (3-[(3-cholamidopropyl)-dimethylammonio]-1-propane-sulfonate) at a final concentration of 2 mM. HCMV polymerase is diluted in enzyme dilution buffer containing 50% glycerol, 250 mM NaCl, 10 mM HEPES (pH 7.5), 100 μg/ml BSA, and 0.01% sodium azide. […] Plates are incubated 10 min. at 37° C., then equilibrated to room temperature, and counted on a Packard Topcount. Linear regressions are performed and IC50's are calculated using computer software.
A modified version of the above HCMV polymerase assay is performed as described above, but with the following changes: Compounds are diluted in 100% DMSO until final dilution into assay buffer. […] In Table 1, the term “nd” refers to activity data not determined.

Chain of HSV polymerase (P04293 whole entry): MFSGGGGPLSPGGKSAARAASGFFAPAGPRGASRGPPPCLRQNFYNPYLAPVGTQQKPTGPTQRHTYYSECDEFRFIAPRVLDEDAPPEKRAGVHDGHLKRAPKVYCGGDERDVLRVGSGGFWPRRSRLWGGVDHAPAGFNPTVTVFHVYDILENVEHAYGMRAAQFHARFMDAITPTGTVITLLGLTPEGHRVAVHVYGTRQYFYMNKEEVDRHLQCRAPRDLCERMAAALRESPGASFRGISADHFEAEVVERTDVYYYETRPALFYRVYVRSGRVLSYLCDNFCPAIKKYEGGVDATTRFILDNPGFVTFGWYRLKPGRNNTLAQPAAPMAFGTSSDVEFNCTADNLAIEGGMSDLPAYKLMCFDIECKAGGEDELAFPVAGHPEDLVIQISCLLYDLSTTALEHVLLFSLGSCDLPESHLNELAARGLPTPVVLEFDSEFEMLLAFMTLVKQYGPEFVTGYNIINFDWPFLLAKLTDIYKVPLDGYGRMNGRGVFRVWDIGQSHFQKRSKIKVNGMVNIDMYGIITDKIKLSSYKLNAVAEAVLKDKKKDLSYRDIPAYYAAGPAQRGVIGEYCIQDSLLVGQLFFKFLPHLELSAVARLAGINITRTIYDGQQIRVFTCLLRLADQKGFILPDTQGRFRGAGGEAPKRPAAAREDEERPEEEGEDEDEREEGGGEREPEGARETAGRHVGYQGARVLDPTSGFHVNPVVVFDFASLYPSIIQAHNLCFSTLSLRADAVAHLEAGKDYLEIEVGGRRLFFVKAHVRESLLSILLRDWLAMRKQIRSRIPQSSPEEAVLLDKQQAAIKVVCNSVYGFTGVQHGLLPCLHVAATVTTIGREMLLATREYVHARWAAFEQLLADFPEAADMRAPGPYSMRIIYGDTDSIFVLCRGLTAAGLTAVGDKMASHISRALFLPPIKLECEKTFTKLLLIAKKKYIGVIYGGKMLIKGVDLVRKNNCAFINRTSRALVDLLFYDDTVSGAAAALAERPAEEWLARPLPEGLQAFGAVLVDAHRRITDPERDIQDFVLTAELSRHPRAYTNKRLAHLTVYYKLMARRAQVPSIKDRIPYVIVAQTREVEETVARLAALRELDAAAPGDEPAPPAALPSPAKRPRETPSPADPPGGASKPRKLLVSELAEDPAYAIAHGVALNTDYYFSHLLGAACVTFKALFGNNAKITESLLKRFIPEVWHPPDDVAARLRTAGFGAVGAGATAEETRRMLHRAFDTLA
Chain of VZV polymerase (P09252 whole entry): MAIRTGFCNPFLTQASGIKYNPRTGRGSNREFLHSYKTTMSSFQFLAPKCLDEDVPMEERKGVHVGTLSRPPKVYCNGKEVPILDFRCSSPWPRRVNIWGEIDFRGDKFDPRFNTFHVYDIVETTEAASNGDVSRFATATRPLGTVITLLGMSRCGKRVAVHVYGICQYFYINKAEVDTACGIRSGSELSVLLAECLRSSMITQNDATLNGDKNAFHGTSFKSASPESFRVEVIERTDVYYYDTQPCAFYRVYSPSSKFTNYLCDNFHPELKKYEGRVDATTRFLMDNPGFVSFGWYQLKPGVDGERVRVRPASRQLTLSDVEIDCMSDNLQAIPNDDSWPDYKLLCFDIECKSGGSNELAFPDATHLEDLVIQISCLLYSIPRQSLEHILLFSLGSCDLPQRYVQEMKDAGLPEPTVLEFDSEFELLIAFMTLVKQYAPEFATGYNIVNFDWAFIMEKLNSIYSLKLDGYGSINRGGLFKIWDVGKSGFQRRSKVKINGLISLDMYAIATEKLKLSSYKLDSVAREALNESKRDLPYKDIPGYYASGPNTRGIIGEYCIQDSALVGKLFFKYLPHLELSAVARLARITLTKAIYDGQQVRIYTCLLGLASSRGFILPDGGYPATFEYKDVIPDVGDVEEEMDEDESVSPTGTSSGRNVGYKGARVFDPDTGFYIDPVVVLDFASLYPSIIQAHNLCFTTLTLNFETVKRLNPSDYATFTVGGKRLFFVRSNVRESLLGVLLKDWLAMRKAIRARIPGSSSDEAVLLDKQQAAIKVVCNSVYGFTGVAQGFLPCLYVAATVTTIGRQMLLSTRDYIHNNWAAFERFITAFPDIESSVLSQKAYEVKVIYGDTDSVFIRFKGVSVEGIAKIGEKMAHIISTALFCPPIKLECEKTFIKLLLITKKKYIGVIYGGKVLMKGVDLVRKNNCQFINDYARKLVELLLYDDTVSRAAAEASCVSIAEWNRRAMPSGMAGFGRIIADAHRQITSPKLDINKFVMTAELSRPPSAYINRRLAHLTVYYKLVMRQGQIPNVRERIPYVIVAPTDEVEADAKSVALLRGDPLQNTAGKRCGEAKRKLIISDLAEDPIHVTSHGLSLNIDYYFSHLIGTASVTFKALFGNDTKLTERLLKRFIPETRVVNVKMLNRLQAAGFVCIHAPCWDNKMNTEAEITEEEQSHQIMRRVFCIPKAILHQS

IC50 [1]: 160 nM
IC50 [2]: 80 nM
IC50 [3]: 630 nM
Structure (SMILES): Cn1cc(C(=O)NCc2ccc(Cl)cc2)c(=S)c2cc(CN3CCOCC3)sc21 [Example 1, N-(4-chlorobenzyl)-7-methyl-2-(4-morpholinylmethyl)-4-thioxo-4,7-dihydrothieno[2,3-b]pyridine-5-carboxamide]
